# In patent publication US20110165611A1, “DUAL MODALITY DETECTION OF APOPTOSIS” (priority 2008, published 2011):
# Entries after “also recorded” stand apart in the source; their conditions may differ.
# T1: Human caspase 3 (Homo sapiens, UniProt P42574)
# T1 construct: purchased Sigma-Aldrich
# T1 sequence (P42574 29-175 limits assumed): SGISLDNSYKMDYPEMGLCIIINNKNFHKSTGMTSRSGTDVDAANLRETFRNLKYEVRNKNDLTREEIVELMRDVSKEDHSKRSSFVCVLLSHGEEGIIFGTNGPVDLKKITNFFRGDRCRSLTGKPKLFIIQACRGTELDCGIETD
# T1 sequence (P42574 176-277 limits assumed): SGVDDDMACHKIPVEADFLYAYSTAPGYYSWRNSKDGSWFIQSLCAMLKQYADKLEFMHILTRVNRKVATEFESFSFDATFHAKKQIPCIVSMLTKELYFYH
# B1: TRAIL: tumor necrosis factor-related apoptosis-inducing ligand, recombinant human (protein, UniProt P50591 1-281, looked up)
# Tumor necrosis factor ligand …: MAMMEVQGGPSLGQTCVLIVIFTVLLQSLCVAVTYVYFTNELKQMQDKYSKSGIACFLKEDDSYWDPNDEESMNSPCWQVKWQLRQLVRKMILRTSEETISTVQEKQQNISPLVRERGPQRVAAHITGTRGRSNTLSSPNSKNEKALGRKINSWESSRSGHSFLSNLHLRNGELVIHEKGFYYIYSQTYFRFQEEIKENTKNDKQMVQYIYKYTSYPDPILLMKSARNSCWSKDAEYGLYSIYQGGIFELKENDRIFVSVTNEHLIDMDHEASFFGAFLVG
# How the values were obtained:
# [1] = Stability of DEVD profluorophore 2 in PBS and serum-containing culture medium; format: physicochemical; details: 10 μM in PBS, 1 μM in medium, room temperature, 8 h
# Protocol: Stability of DEVD profluorophore 2 in PBS and serum-containing culture medium For the stability assay, the generation of fluorescence was recorded continuously at room temperature for 8 h for a solution of 2 (10 μM) or fluorescein diacetate (10 μM) in 3 mL of PBS using a Fluorolog-3 fluorometer (Jobin Yvon, Edison, N.J.) at λex=496 nm. The procedure was repeated for a solution of 2 (1 μM) or fluorescein diacetate (1 μM) in Dulbecco's modified Eagle medium supplemented with 10% (v/v) fetal bovine serum. Cleavage of amide bond linking R110 to DEVD or hydrolysis of fluorescein diacetate would result in increased fluorescence signal.
# DLD1 cells [2] = test: Fluorescence microscopy of viable and TRAIL-treated apoptotic DLD1 cells; format: cell-based, human; details: for Effect on apoptosis of DLD1 cells (annexin V staining): annexin V-Alexa Fluor 594 staining
# Protocol: Fluorescence Microscopy Human epithelial cells from colorectal adenocarcinoma (DLD1) were seeded (1×10^4/well) in a 96-well plate 1 day before experiments. Apoptosis was induced by treating cells with TRAIL (100 μL, 250 ng/mL) for 2 h at 37° C. Both apoptotic and viable cells were incubated with 100 μL of 2 or 3 in (final concentration, 50 μM) for 2 h at 37° C. The cells were washed and stained with Annexin V-Alexa Fluor 594. After washing with PBS, the cells were transferred into Lab-Tek II chambered cover glass and visualized under Olympus Fluoview FV1000 confocal laser scanning microscope (FV1-ASW, Olympus, Melville, N.Y.) equipped with fluorescein isothiocyanate (wavelength: 495/519 nm) and Texas red filters (wavelength: 589/615 nm). In separate wells, TRAIL was added in the presence of 50 μM of Ac-DEVD-CHO to inhibit caspase 3 activity.
# Fluorescence microscopy Human epithelial cells from colorectal adenocarcinoma (DLD1) were obtained from American Type Cell Culture (Manassas, Va.). Cells were seeded (1×10^4/well) in a 96-well plate (Corning, Lowell, Mass.) supplemented with RPMI-1640 medium plus 10% fetal bovine serum (FBS) 1 day before experiments. Apoptosis was induced by treating cells with TRAIL (100 μL, 250 ng/mL) for 2 h at 37° C. The treated apoptotic cells were collected in conical tubes, while the untreated viable cells were trypsinized. The cells were centrifuged at 3000 rpm for 5 mM. The pellets were washed with RPMI 1640 without phenol red. Both apoptotic and viable cells were incubated with 100 μL, of 2 or 3 in RPMI 1640 without phenol red (final concentration, 50 μM) for 2 h at 37° C. The cells were washed and resuspended in annexin-binding buffer (10 mM HEPES, 140 mM NaCl, and 2.5 mM CaCl2 [pH 7.4]). Five microliters of Alexa Fluor 594-annexin V conjugate was added into each 100 μl of cell suspension, and the cells were incubated for 15 min at room temperature. […]
# Human caspase 3 = target: T1, Human caspase 3; test: Cleavage by caspase 3 (fluorescence emission and LC-MS); format: biochemical
# Protocol: Cleavage by caspase 3 Human caspase 3 (Sigma-Aldrich) (5 μg) was reconstituted with 50 μL of deionized water (100 μg/mL) and stored in aliquots at −70° C. Before its use, an aliquot of reconstituted caspase 3 was thawed and diluted 200-fold in 1× assay buffer to a final concentration of 0.5 μg/mL. Five microliters of diluted caspase 3 was then added into a solution of 2 (22 μM) in 3 mL 1× assay buffer (20 mM HEPES [pH 7.4], with 2 mM ethylenediaminetetraacetic acid, 0.1% 3-[(3-cholamidopropyl)dimethylammonio]-1-propanesulfonate, and 5 mM dithiothreitol). The reaction mixture was incubated in cuvet in dark at room temperature and the emission spectra were recorded at intervals of 0, 10, 20, 30 and 60 min on a Fluorolog 3 fluorometer (HORIBA, Edison, N.J.) with an excitation wavelength (λex) of 496 nm.
# To further confirm cleavage of 2 by caspase 3, 5 μL of caspase 3 (0.5 μg/mL) was mixed with 10 μL of 1 mM solution of 2 dissolved in 1× assay buffer. After 1 h at room temperature, the reaction mixture was injected into LC-MS system.
# DLD1 cells [3] = test: Cellular uptake and efflux of DEVD peptides 2 and 3, fluorescence analysis; format: cell-based, human
# Protocol: Cellular uptake and efflux of DEVD peptides 2 and 3—fluorescence analysis DLD1 cells were seeded (1×10^4/well) in a 96-well plate 1 day before experiments. The DLD1 cells were sequentially treated with 100 μL of the following agents at 37° C.: (A) 25 μM each DEVD conjugate for 2 h; (B) 25 μM each DEVD conjugate for 2 h followed by TRAIL (150 ng/L) for 2 h; (C) 25 μM each DEVD conjugate for 2 h, drug-free culture medium for 2 h, and TRAIL (150 ng/L) for 2 h; and (D) 25 μM each DEVD conjugate for 2 h, drug-free culture medium for 24 h, and TRAIL (150 ng/L) for 2 h. The cells were washed with PBS twice before each medium replacement. After treatment, the cells were lysed with 100 μL of lysis buffer (Sigma) for […] at room temperature. The fluorescence intensity of cleaved R110 was measured using a TECAN microplate reader (San Jose, Calif.). The measurement parameters were as follows: excitation wavelength, 485 nm; emission wavelength, 520 nm; excitation and emission bandwidth, both 12.0 nm; gain, 50; number of flashes, 10; and integration time, 30 μs. The measurements were performed 4 times each.
# Uptake and release kinetics of DEVD peptides in normal and apoptotic cells. DLD-1 cells were seeded (1×10^4/well) in 96 well plate 1 days before experiment. […] The fluorescent intensity of cleaved R110 was measured using TECAN microplate reader (San Jose, Calif.). […]
# [4] = Stability of 99mTc-chelate 4, ligand challenge with cysteine and histidine; format: physicochemical; details: 0.01 M cysteine or histidine in PBS, 37° C., 1 and 5 h
# Protocol: A large excess of competing donors cysteine and histidine was used as a means of evaluating the complex's tendency to undergo transchelation. […] The samples were incubated at 37° C. and analyzed by HPLC at 1- and 5-h intervals.
# DLD1 cells [5] = test: Cellular uptake and efflux of 99mTc-chelate 4, radiotracer analysis; format: cell-based, human; details: for Efflux / retention in DLD1 cells after wash: 2 h loading, fresh medium 60-180 min
# Protocol: The medium was replaced with 2 mL of medium containing radiotracers 99 mTc-chelate 4 [Ac-DEVD-R110-D-SAAC-99mTc(CO)3] (˜40 μCi/mL) or its fragment R110-D-SAAC-99 mTc(CO)3 (˜40 μCi/mL). The cells were subsequently incubated for 60 and 120 min before the monolayers were scraped, transferred into 5-mL tubes. The tubes were briefly vortexed and 100 μL DLD1 cell suspension were transferred into a microcentrifuge tube containing 500 μL of a 75:25 mixture of silicon oil (density 1.05, Aldrich) and mineral oil (density 0.872, Acros). The mixture was centrifuged at 14,000 rpm for 5 min. After freezing the tubes with liquid nitrogen, the bottom tips containing the cell pellet were cut off. The cell pellets and the supernatants were counted with a γ-counter (Perkin-Elmer). The protein content in 100 μl cell suspension was quantified in a separate experiment using the Bio-Rad protein assay kit according to the manufacturer's protocol. For efflux study, cells were incubated with each radiotracer for 2 hrs, then the medium was removed and the cells washed with medium twice. The cells were incubated with 2 mL of fresh medium for additional 60 min, 120 min, and 180 min. The radioactivity in the cell pellets and media were counted as described before. Activity ratios of the cell pellet to medium ([cpm/g protein in pellet]/[cpm/g medium]) were calculated and plotted against time. The experiments were performed in pentaplicate.
# apoptotic liver = test: Gamma imaging in murine liver apoptosis model (anti-Fas); format: in vivo, mouse; details: 300 μCi i.v., imaging 120 min after injection
# Text: We used a murine liver apoptosis model to evaluate whether chelate 4 could be used to image apoptosis in vivo. F. G. Blankenberg, J. F. Tait, R. E. Davis, L. Naumovski, K. Ohtsuki, S. Kopiwoda, M. J. Abrams, M. Darkes, R. C. Robbins, H. T. Maecker, H. W. Strauss, Proc. Natl. Acad. Sciences USA 1998, 95, 6349-6354; F. G. Blankenberg, P. D. Katsikis, J. F. Tait, R. E. Davis, L. Naumovski, K. Ohtsuki, S. Kopiwoda, M. J. Abrams, H. W. Strauss, J. Nucl. Med. 1999, 40, 184-191. Male Balb/c mice (10-12 weeks old, weight 20-25 g) were injected intravenously with an anti-Fas monoclonal antibody (10 μg/mouse) to induce apoptosis in the liver. […] Radionuclide imaging was acquired 120 min after the injection of 4.
# Gamma Imaging and Biodistribution For γ-imaging study, two male Balb/c mice (10-12 weeks old, weight 20-25 g) (Charles River, Wilmington, Mass.) were injected intravenously with a purified anti-Fas monoclonal antibody (10 μg/mouse) (Pharmingen, San Diego, Calif.). Two mice injected with PBS were used as a control group. […] The organs of interest were excised and weighed, and radioactivity was counted in a gamma counter. The stomach and intestines were emptied of food contents prior to radioactivity measurements. The percentage of injected dose per gram (% ID/g) was calculated by dividing the % ID/organ by the weight of the tissue.
# [6] = system: activated caspase 3 in liver; test: Fluorescence microscopic analysis of liver from mice injected 99mTc-chelate 4; format: in vivo, mouse; details: anti-Fas-treated vs PBS-treated liver, 2 h after i.v. injection
# Protocol: The tissue slices were fixed using 4% paraformaldehyde for 15 min at room temperature. After PBS washing, the samples were blocked with 10% goat serum at 37° C. for 30 min, followed by 1 μg/mL of rabbit anti-mouse-activated caspase 3 monoclonal antibody (R&D Systems, Minneapolis, Minn.) at 4° C. overnight. Texas red-conjugated goat anti-rabbit IgG (1:1000, Invitrogen, Eugene, Oreg.) was used as second antibody at room temperature for 1 h. Cell nuclei were counterstained with 3 μg/mL of Hoechst 33342 at room temperature for 5 min. The slices were mounted and visualized under a Zeiss Axio Observer.Z1 fluorescence microscope (Carl Zeiss MicroImaging GmbH, Göttingen, Germany).
# liver = test: Radio-HPLC analysis of liver extracts from mice injected 99mTc-chelate 4; details: mouse, in vivo
# Protocol: Two hours after intravenous injection of 4 (1 mCi, 80 μg, 0.2 mL) into a mouse treated with […] and a mouse treated with PBS 2 h prior to the injection of the radiotracer, mice were killed and livers were removed and ground at 4° C. using a Dounce homogenizer (Polytron, […], Switzerland) in 5 mL of acetonitrile/methanol (3:1, v/v). After sequential high-speed centrifugation (100,000 g for 20 min) to remove cellular debris and insoluble proteins, the supernatants were concentrated and injected into the radio-HPLC system (condition: solvent A, 0.01 M NH4OAc in water; solvent B, acetonitrile; gradient: 0-80% B in A over 40 min, flow rate 1.0 mL/min, C18 4.6×250 mm, 5-μm column).
molecule,measurement,setting,value
"CC(=O)Oc1ccc2c(c1)Oc1cc(OC(C)=O)ccc1C21OC(=O)c2ccccc21 [fluorescein diacetate, reference compound]",Stability in PBS and culture medium with 10% FBS (generation of fluorescence),[1],relatively rapid hydrolysis in both solutions
Ac-DEVD-CHO,Effect of caspase 3 inhibitor on fluorescent signal from 3,DLD1 cells [2]; 50 μM Ac-DEVD-CHO with TRAIL,significantly reduced the fluorescent signal from 3
same,Effect on apoptosis of DLD1 cells (annexin V staining),DLD1 cells [2],did not inhibit the apoptosis of DLD1 cells
Ac-DEVD-R110-D-SAAC-Fmoc [Compound 2],Fluorescence change after introduction of caspase 3,"Human caspase 3; 22 μM, over 60 min, λex 496 nm",large increase in fluorescence
same,Fluorescence emission without exposure to caspase 3,"Human caspase 3; 22 μM, λex 496 nm, room temperature",near-baseline emission
same,Site of hydrolytic cleavage by caspase 3 (LC-MS),Human caspase 3; 1 h at room temperature,occurred selectively at the amide bond between DEVD and R110
same,Degradation on incubation with caspase 3,Human caspase 3; fluorescence increase and LC-MS,completely degraded
same,Stability in PBS and culture medium with 10% FBS (generation of fluorescence),[1],stable in both PBS and culture medium supplemented with serum; also recorded: remarkable stability in both PBS and culture medium supplemented with serum
same,Uptake in viable tumor cells: reversibility (efflux in drug-free medium 2 or 24 h),"DLD1 cells [3]; 25 μM 2 h, then drug-free medium, then TRAIL",reversible process
same,Increase of fluorescence intensity upon TRAIL treatment,DLD1 cells [3]; 25 μM 2 h followed by TRAIL (150 ng/mL) 2 h vs no TRAIL,27 fold
Ac-DEVD-R110-D-SAAC-^99mTc(CO)3 [^99mTc-chelate 4],Transchelation under cysteine/histidine challenge,[4],No transchelation was observed
same,Uptake in DLD1 cells (cell pellet to medium activity ratio),"DLD1 cells [5]; 1-2 h of incubation, compared with fragment",accumulated significantly more in the cells than its fragment did; also recorded: significantly higher uptake in DLD1 cells
same,Efflux / retention in DLD1 cells after wash,DLD1 cells [5],washed out of the cells over time; also recorded: gradually washed out
same,"Liver uptake, anti-Fas-treated vs PBS-treated mice (radionuclide imaging)",apoptotic liver,Significantly higher uptake
same,Cleavage of fluorogenic probe in liver sections,[6],shown only in the apoptotic liver but not in the normal liver
R110-D-SAAC-^99mTc(CO)3,Permeability to plasma membrane compared with parent substrate,DLD1 cells [5],less permeable to plasma membrane
same,Efflux / retention in DLD1 cells after wash,DLD1 cells [5],trapped in the cells
same,Retention of degradation product in liver,liver,retained in the apoptotic liver in its intact form
B1,Effect on apoptosis of DLD1 cells (annexin V staining),DLD1 cells [2],induced significant apoptosis
